In patent publication US10500209B2, “Quinazolinones as bromodomain inhibitors” (Zenith Epigenetics Ltd., priority 2013, dated 2019):

Experiments:
[1] = target: T1, Brd4 bromodomain 1 (BRD4(1)) (Homo sapiens, UniProt O60885); experiment: Inhibition of tetra-acetylated histone H4 binding to BET bromodomains (TR-FRET); parameters: key: Active: Compounds with an IC50 value less than 30 μM were deemed to be active.; Not Active: Compounds with an IC50 value less than 30 μM were deemed to be active; settings: first bromodomain of Brd4, tetra-acetylated histone H4 peptide
T1 construct: made in house; host or cells: E. coli BL21(DE3)
Summary of the method: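 N-terminally His-tagged bromodomain (200 nM) from E. coli was mixed with biotinylated tetra-acetylated histone H4 peptide (25-50 nM), Eu-streptavidin and XL665 anti-His, plus compound, in HEPES pH 7.4 buffer with 0.2% DMSO. After 2 h at room temperature, the 665/620 nm TR-FRET decrease gave IC50 from dose-response curves.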

[2] = tested on: human AML MV-4-11 cells; experiment: Inhibition of cell proliferation in cancer cell lines (CellTiter Aqueous One); assay type: cell-based; parameters: key: Active: Compounds with an IC50 value less than 30 μM were deemed to be active.; Not Active: Compounds with an IC50 value less than 30 μM were deemed to be active; settings: 72 h
Procedure: MV4-11 cells: 96-well plates were seeded with 5×10^4 cells per well of exponentially growing human AML MV-4-11 (CRL-9591) cells and immediately treated with two-fold dilutions of test compounds, ranging from 30 μM to 0.2 μM. Triplicate wells were used for each concentration, as well as a media only and three DMSO control wells. The cells and compounds were incubated at 37° C., 5% CO2 for 72 h before adding 20 μL of the CellTiter Aqueous One Solution (Promega) to each well and incubating at 37° C., 5% CO2 for an additional 3-4 h. The absorbance was taken at 490 nm in a spectrophotometer and the percentage of proliferation relative to DMSO-treated cells was calculated after correction from the blank well. IC50 were calculated using the GraphPad Prism software.

[3] = tested on: hIL-6 mRNA; experiment: Inhibition of hIL-6 mRNA transcription in LPS-stimulated U937 macrophages; assay type: cell-based, human; parameters: key: Active: Compounds with an IC50 value less than 30 μM were deemed to be active.; Not Active: Compounds with an IC50 value less than 30 μM were deemed to be active; settings: U937 cells differentiated with PMA, LPS stimulation, 3 h
Procedure: In this example, hIL-6 mRNA in tissue culture cells was quantitated to measure the transcriptional inhibition of hIL-6 when treated with a compound of the present disclosure.
A human leukemic monocyte lymphoma cell line (U937) was plated (3.2×10^4 cells per well) in a 96-well plate in 100 μL RPMI-1640 containing 10% FBS and penicillin/streptomycin, and differentiated into macrophages for 3 days in 60 ng/mL PMA ([…]) at 37° C. in 5% CO2 prior to the addition of the compound of interest. The cells were pretreated for 1 h with the test compound prior to stimulation with 1 ug/mL lipopolysaccharide from Escherichia coli. The cells were incubated at 37° C. for 3 h before the cells were harvested. At time of harvest, the spent media was removed from the cells and the cells were rinsed in 200 μL PBS. Cell lysis solution (70 μL) was added the cells in each well and incubated for 5-10 min at room temperature, to allow for complete cell lysis and detachment. mRNA was then prepared using the “mRNA Catcher PLUS plate” (Invitrogen), according to the protocol supplied. After the last wash, as much wash buffer as possible was aspirated without allowing the wells to dry. Elution buffer (E3, 70 μL) was then added to each well. mRNA was then eluted by incubating the mRNA Catcher PLUS plate with Elution Buffer for 5 min at 68° C. and then immediately placing the plate on ice.
The eluted mRNA isolated was then used in a one-step quantitative real-time PCR reaction, using components of the Ultra Sense Kit together with Applied Biosystems primer-probe mixes. Real-time PCR data was analyzed, normalizing the Ct values for hIL-6 to an internal control, prior to determining the fold induction of each unknown sample, relative to the control.

[4] = tested on: c-myc in MV4-11 cells; experiment: Inhibition of c-myc expression in cancer cell lines (mRNA, real-time PCR); assay type: cell-based, Human; parameters: key: Active: Compounds with an IC50 value less than 30 μM were deemed to be active.; Not Active: Compounds with an IC50 value less than 30 μM were deemed to be active; settings: 3 h
Procedure: MV4-11 cells (2.5×10^4 cells) were plated in 96 well U-bottom plates with test compound or DMSO (0.1%), and incubated for 3 h at 37° C. Cells were then harvested by centrifugation, lysed, and mRNA was isolated using the mRNA catcher plus kit (Invitrogen). Reverse transcription of the mRNA and duplex amplification of the c-myc and cyclophilin cDNAs was performed using the RNA Ultrasense kit (Invitrogen) and a ViiA7 real-time PCR machine (Applied Biosystems). IC50 values were determined from a dose response curve.

SMILES	FRET activity BRD4(1) [1]	Cell Proliferation activity (IC50 < 30 μM) [2]	melting point [°C]	IL-6 activity (IC50 < 30 μM) [3]	c-myc activity (IC50 < 30 μM) [4]
COc1ccc(-c2nc3cc(OC)cc(OC)c3c(=O)[nH]2)c(NCCNC(C)C)c1 [Example 8, 2-(2-((2-(Isopropylamino)ethyl)amino)-4-methoxyphenyl)-5,7-dimethoxyquinazolin-4(3H)-one]	Active	Active	262 to 264	Active	Active
COc1ccc(-c2nc3cc(OC)cc(OC)c3c(=O)[nH]2)c(NCC2CCN(C)C2)c1 (stereo not drawn) [Example 7, 5,7-Dimethoxy-2-(4-methoxy-2-(((1-methylpyrrolidin-3-yl)methyl)amino)phenyl)-quinazolin-4(3H)-one]	Active	Active	233 to 235	Active	Active
COc1ccc(-c2nc3cc(OC)cc(OC)c3c(=O)[nH]2)c(NC2CCN(C(C)C)CC2)c1 [Example 3, 2-(2-((1-isopropylpiperidin-4-yl)amino)-4-methoxyphenyl)-5,7-dimethoxyquinazolin-4(3H)-one]	Active	Active	248 to 250	Active	Active
COc1cc(OC)c2c(=O)[nH]c(-c3ncccc3NC3CCN(C(=O)C(=O)N(C)C)CC3)nc2c1 [Example 51, 2-(4-((2-(5,7-Dimethoxy-4-oxo-3,4-dihydroquinazolin-2-yl)pyridin-3-yl)amino)piperidin-1-yl)-N,N-dimethyl-2-oxoacetamide]	Active	Active	261 to 262	Active	Active
CCNc1cc(OC)c2c(=O)[nH]c(-c3ncccc3NC3CCN(C(C)C)CC3)nc2c1 [Example 69, 7-(Ethylamino)-2-(3-((1-isopropylpiperidin-4-yl)amino)pyridin-2-yl)-5-methoxyquinazolin-4(3H)-one]	Active	Active	219 to 221	Active	Active
CCNC(=O)N1CCC(Nc2cccnc2-c2nc3cc(OC)cc(OC)c3c(=O)[nH]2)CC1 [Example 52, 4-((2-(5,7-dimethoxy-4-oxo-3,4-dihydroquinazolin-2-yl)pyridin-3-yl)amino)-N-ethylpiperidine-1-carboxamide]	Active	Not Active	151 to 152	Active	Active
COc1cc(OC)c2c(=O)[nH]c(-c3ncccc3NC3CCN(C(=O)C(F)(F)F)CC3)nc2c1 [Example 46, 5,7-Dimethoxy-2-(3-((1-(2,2,2-trifluoroacetyl)piperidin-4-yl)amino)pyridin-2-yl)quinazolin-4(3H)-one]	Active	Active	218 to 219	Active	Active
COc1cc(OC)c2c(=O)[nH]c(-c3ncccc3NC3CCN(C(=O)C(C)O)CC3)nc2c1 (stereo not drawn) [Example 60, 2-(3-((1-(2-hydroxypropanoyl)piperidin-4-yl)amino)pyridin-2-yl)-5,7-dimethoxyquinazolin-4(3H)-one]	Active	Active	290 to 291	Active	Active
COc1cc(OC)c2c(=O)[nH]c(-c3ncc(OCCO)cc3NC3CCN(C(=O)C(C)C)CC3)nc2c1 [Example 64, 2-[5-(2-Hydroxyethoxy)-3-(1-isobutyroylpiperidin-4-ylamino)pyridin-2-yl]-5,7-dimethoxyquinazolin-4(3H)-one]	Active	Active	173 to 176	Active	Active
COc1ccc(-c2nc3cc(OC)cc(OC)c3c(=O)[nH]2)c(NCCN2CCN(C(C)C)CC2)c1 [Example 22, 2-(2-((2-(4-Isopropylpiperazin-1-yl)ethyl)amino)-4-methoxyphenyl)-5,7-dimethoxyquinazolin-4(3H)-one]	Active	Active	227 to 228	Active	Active
COc1ccc(-c2nc3cc(OC)cc(OC)c3c(=O)[nH]2)c(NCCCN2CCNCC2)c1 [Example 28, 5,7-Dimethoxy-2-(4-methoxy-2-[3-(piperazin-1-yl)propylamino]phenyl)quinazolin-4(3H)-one]	Active	Active	225 to 228	Active	Active
COc1cc(OC)c2c(=O)[nH]c(-c3ncccc3NCCCNC(=O)C(C)C)nc2c1 [Example 57, N-(3-((2-(5,7-Dimethoxy-4-oxo-3,4-dihydroquinazolin-2-yl)pyridin-3-yl)amino)propyl)isobutyramide]	Active	Not Active	230 to 231	Active	Active
COC(=O)C(=O)N1CCC(Nc2cccnc2-c2nc3cc(OC)cc(OC)c3c(=O)[nH]2)CC1 [Example 55, Methyl-2-(4-((2-(5,7-dimethoxy-4-oxo-3,4-dihydroquinazolin-2-yl)pyridin-3-yl)amino)piperidin-1-yl)-2-oxoacetate]	Active	Active	165 to 166	Active	Active
COc1cc(OC)c2c(=O)[nH]c(-c3ncccc3NCCNC(=O)C(C)C)nc2c1 [Example 56, N-(2-((2-(5,7-Dimethoxy-4-oxo-3,4-dihydroquinazolin-2-yl)pyridin-3-yl)amino)ethyl)isobutyramide]	Active	Active	235 to 237	Active	Active
COc1cc(OC)c2c(=O)[nH]c(-c3ncccc3NC3CCN(C(C)C)CC3)nc2c1 [Example 18, 2-(3-((1-Isopropylpiperidin-4-yl)amino)pyridin-2-yl)-5,7-dimethoxyquinazolin-4(3H)-one]	Active	Active	170 to 172	Active	Active
